The values below are quoted from earlier work in patent US20020038007A1, “Method of finding agonist and antagonist to human 11cb splice variant” (priority 1996, published 2002).

The conditions of data set [1]: intracerebroventricular injection; Presse, F et al Neuroscience 1996.
The conditions of data set [2]: injection into lateral ventricles of rats.

Turning to “H-Asp-Phe-Asp-Met-Leu-Arg-Cys-Met-Leu-Gly-Arg-Val-Tyr-Arg-Pro-Cys-Trp-Gln-Val-OH (H-DFDMLRCMLGRVYRPCWQV-OH; cysteine pairing not given here) [MCH]”, the feeding entry in data set [1] is reported as “inhibit feeding”. Besides, the food consumption result in data set [2] was “increased food consumption”.
